Tests used:
Mus musculus [1] = species: Mus musculus; test: Effect in increasing life span of mice bearing L1210 leukemia; assay type: functional
Mus musculus [2] = species: Mus musculus; test: Maximally tolerated dose in mice bearing L1210 leukemia.; assay type: functional
L1210 = test: Inhibitory activity […] bearing L1210 leukemia; assay type: functional, cell-based, Mus musculus
Mus musculus [3] = species: Mus musculus; test: Compound tested for maximally tolerated dose in mice bearing L1210 leukemia; No toxicity was observed; assay type: functional

CCC1(O)C(=O)OCc2c1cc1n(c2=O)Cc2c-1nc1ccccc1c2CCN(C)C(=O)OCc1ccccc1 (stereo not drawn)
ILS (Mus musculus [1]): 62%
MTD (Mus musculus [2]): 128 µM/kg
IC50 (L1210; Mus musculus, L1210): 62 nM

CC[C@@]1(O)C(=O)OCc2c1cc1n(c2=O)Cc2cc3c(CN(C)C)cccc3nc2-1
ILS (Mus musculus [1]): 88%
MTD (Mus musculus [2]): 29 µM/kg
IC50 (L1210; Mus musculus, L1210): 65 nM

CCc1c2c(nc3ccc(OC(=O)N4CCC(N5CCCCC5)CC4)cc13)-c1cc3c(c(=O)n1C2)COC(=O)[C@]3(O)CC [IRINOTECAN]
MTD (Mus musculus [2]): 245 µM/kg

CC[C@@]1(O)C(=O)OCc2c1cc1n(c2=O)Cc2cc3c(CN4CCOCC4)cccc3nc2-1
ILS (Mus musculus [1]): 144%
MTD (Mus musculus [2]): 29 µM/kg
IC50 (L1210; Mus musculus, L1210): 690 nM

CC[C@@]1(O)C(=O)OCc2c1cc1n(c2=O)Cc2cc3ccccc3nc2-1 [CAMPTOTHECIN]
ILS (Mus musculus [1]): 118%
MTD (Mus musculus [2]): 22 µM/kg
IC50 (L1210; Mus musculus, L1210): 23 nM

CCOCc1c(O)ccc2nc3c(cc12)Cn1c-3cc2c(c1=O)COC(=O)[C@]2(O)CC
ILS (Mus musculus [1]): 125%
MTD (Mus musculus [2]): 56 µM/kg
IC50 (L1210; Mus musculus, L1210): 48 nM

CC[C@@]1(O)C(=O)OCc2c1cc1n(c2=O)Cc2cc3c(CNCCO)c(O)ccc3nc2-1
ILS (Mus musculus [1]): 62%
MTD (Mus musculus [2]): 82 µM/kg
IC50 (L1210; Mus musculus, L1210): 250 nM

CC[C@@]1(O)C(=O)OCc2c1cc1n(c2=O)Cc2cc3c(CNC4CC4)c(O)ccc3nc2-1
ILS (Mus musculus [1]): 131%
MTD (Mus musculus [2]): 48 µM/kg
IC50 (L1210; Mus musculus, L1210): 130 nM

CC[C@@]1(O)C(=O)OCc2c1cc1n(c2=O)Cc2cc3c(CN(C)c4ccccc4)c(O)ccc3nc2-1
ILS (Mus musculus [1]): 138%
MTD (Mus musculus [2]): 83 µM/kg
IC50 (L1210; Mus musculus, L1210): 69 nM

CC[C@@]1(O)C(=O)OCc2c1cc1n(c2=O)Cc2cc3cc(O)ccc3nc2-1 [HYDROXYCAMPTOTHECIN]
ILS (Mus musculus [1]): 78%
MTD (Mus musculus [2]): 21 µM/kg
IC50 (L1210; l1210): 18 nM

CC[C@@]1(O)C(=O)OCc2c1cc1n(c2=O)Cc2cc3c(CN4CCN(C)CC4)c(O)ccc3nc2-1
ILS (Mus musculus [1]): >200%
MTD (Mus musculus [3]): 74 µM/kg
IC50 (L1210; Mus musculus, L1210): 72 nM

CC[C@@]1(O)C(=O)OCc2c1cc1n(c2=O)Cc2cc3c(CNC4CCCCC4)c(O)ccc3nc2-1
ILS (Mus musculus [1]): >200%
MTD (Mus musculus [2]): 47 µM/kg
IC50 (L1210; Mus musculus, L1210): 56 nM

CC[C@@]1(O)C(=O)OCc2c1cc1n(c2=O)Cc2cc3c(CN(C)C)c(O)ccc3nc2-1 [TOPOTECAN]
ILS (Mus musculus [1]): 173%
MTD (Mus musculus [2]): 30 µM/kg

CCC1(O)C(=O)OCc2c1cc1n(c2=O)Cc2c-1nc1ccc(CC#N)cc1c2C (stereo not drawn)
ILS (Mus musculus [1]): 106%
MTD (Mus musculus [2]): 6.4 µM/kg
IC50 (L1210; Mus musculus, L1210): 7.5 nM

CC[C@@]1(O)C(=O)OCc2c1cc1n(c2=O)Cc2cc3cc(C#N)ccc3nc2-1
ILS (Mus musculus [1]): 100%
MTD (Mus musculus [2]): 7.8 µM/kg
IC50 (L1210; Mus musculus, L1210): 80 nM

CC[C@@]1(O)C(=O)OCc2c1cc1n(c2=O)Cc2cc3c(C=O)c(O)ccc3nc2-1
ILS (Mus musculus [1]): >75%
MTD (Mus musculus [3]): 102 µM/kg
IC50 (L1210; Mus musculus, L1210): 260 nM

CC[C@@]1(O)C(=O)OCc2c1cc1n(c2=O)Cc2cc3c(CC#N)c(O)ccc3nc2-1
ILS (Mus musculus [1]): >200%
MTD (Mus musculus [2]): 28 µM/kg
IC50 (L1210; Mus musculus, L1210): 400 nM

CC[C@@]1(O)C(=O)OCc2c1cc1n(c2=O)Cc2cc3c(COCCN(C)C)c(O)ccc3nc2-1
ILS (Mus musculus [1]): 188%
MTD (Mus musculus [2]): 50 µM/kg
IC50 (L1210; Mus musculus, L1210): 180 nM

CC[C@@]1(O)C(=O)OCc2c1cc1n(c2=O)Cc2cc3cc(CN)ccc3nc2-1
ILS (Mus musculus [1]): 112%
MTD (Mus musculus [2]): 160 µM/kg
IC50 (L1210; Mus musculus, L1210): 90 nM

CC[C@@]1(O)C(=O)OCc2c1cc1n(c2=O)Cc2cc3c(CSCCN(C)C)c(O)ccc3nc2-1
ILS (Mus musculus [1]): >112%
MTD (Mus musculus [3]): 76 µM/kg
IC50 (L1210; Mus musculus, L1210): 12 nM

CC[C@@]1(O)C(=O)OCc2c1cc1n(c2=O)Cc2cc3c(C[N+](C)(C)C)c(O)ccc3nc2-1
ILS (Mus musculus [1]): >200%
MTD (Mus musculus [2]): 68 µM/kg
IC50 (L1210; Mus musculus, L1210): 150 nM

CC[C@@]1(O)C(=O)OCc2c1cc1n(c2=O)Cc2cc3c(C)cccc3nc2-1
ILS (Mus musculus [1]): >200%
MTD (Mus musculus [2]): 15 µM/kg
IC50 (L1210; Mus musculus, L1210): 70 nM

CCC1(O)C(=O)OCc2c1cc1n(c2=O)Cc2c-1nc1ccc(CCN)cc1c2C (stereo not drawn)
ILS (Mus musculus [1]): >33%
MTD (Mus musculus [2]): 68 µM/kg
IC50 (L1210; Mus musculus, L1210): 29 nM

CCC1(O)C(=O)OCc2c1cc1n(c2=O)Cc2c-1nc1ccccc1c2CCNC (stereo not drawn)
ILS (Mus musculus [1]): 43%
MTD (Mus musculus [2]): 122 µM/kg
IC50 (L1210; Mus musculus, L1210): 44 nM

CC[C@@]1(O)C(=O)OCc2c1cc1n(c2=O)Cc2cc3c(CCN)c(O)ccc3nc2-1
ILS (Mus musculus [1]): 75%
MTD (Mus musculus [2]): 210 µM/kg
IC50 (L1210; Mus musculus, L1210): 360 nM

CC[C@@]1(O)C(=O)OCc2c1cc1n(c2=O)Cc2cc3c(CN4CCC(N5CCCCC5)CC4)c(O)ccc3nc2-1
ILS (Mus musculus [1]): >44%
MTD (Mus musculus [3]): 77 µM/kg
IC50 (L1210; Mus musculus, L1210): 270 nM

CC[C@@]1(O)C(=O)OCc2c1cc1n(c2=O)Cc2cc3cc(P(=O)(O)O)ccc3nc2-1
MTD (Mus musculus [3]): 155 µM/kg
IC50 (L1210; Mus musculus, L1210): 26000 nM

CC[C@@]1(O)C(=O)OCc2c1cc1n(c2=O)Cc2cc3c(N)cccc3nc2-1 [9-AMINOCAMPTOTHECIN]
ILS (Mus musculus [1]): 94%
MTD (Mus musculus [2]): 8.9 µM/kg
IC50 (L1210; Mus musculus, L1210): 12 nM

CC[C@@]1(O)C(=O)OCc2c1cc1n(c2=O)Cc2cc3c(CN4CCOCC4)c(O)ccc3nc2-1
ILS (Mus musculus [1]): 83%
MTD (Mus musculus [2]): 190 µM/kg
IC50 (L1210; Mus musculus, L1210): 370 nM

CC[C@@]1(O)C(=O)OCc2c1cc1n(c2=O)Cc2cc3c(CNCCN(C)C)c(O)ccc3nc2-1
ILS (Mus musculus [1]): >94%
MTD (Mus musculus [3]): 78 µM/kg
IC50 (L1210; Mus musculus, L1210): 49 nM

CCc1c2c(nc3ccc(O)cc13)-c1cc3c(c(=O)n1C2)COC(=O)[C@]3(O)CC [7-ETHYL-10-HYDROXYCAMPTOTHECIN]
ILS (Mus musculus [1]): 144%
MTD (Mus musculus [2]): 86 µM/kg
